Measurements published in PubChem BioAssay (NCI).
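Each compound was tested at five concentrations against cells in 96-well plates for 48 hours. GI50 is the concentration that inhibits growth by half. TGI marks complete inhibition of growth.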

Tests used:
Experiment in all cases: DTP human tumour cell line panel, 48 h
UO-31 renal = test system: UO-31 renal
TK-10 renal = test system: TK-10 renal
SK-MEL-5 melanoma = test system: SK-MEL-5 melanoma
NCI-H23 lung = test system: NCI-H23 lung
MALME-3M melanoma = test system: MALME-3M melanoma
RXF 393 renal = test system: RXF 393 renal
SF-539 CNS = test system: SF-539 CNS
A498 renal = test system: A498 renal
CCRF-CEM leukemia = test system: CCRF-CEM leukemia
NCI/ADR-RES ovarian = test system: NCI/ADR-RES ovarian

SMILES	TGI (UO-31 renal)	TGI (TK-10 renal)	TGI (SK-MEL-5 melanoma)	TGI (NCI-H23 lung)	TGI (MALME-3M melanoma)	TGI (RXF 393 renal)	TGI (SF-539 CNS)	TGI (A498 renal)	TGI (CCRF-CEM leukemia)	GI50 (NCI/ADR-RES ovarian)	TGI (NCI/ADR-RES ovarian)	GI50 (UO-31 renal)	GI50 (TK-10 renal)	GI50 (SK-MEL-5 melanoma)	GI50 (NCI-H23 lung)	GI50 (RXF 393 renal)	GI50 (SF-539 CNS)	GI50 (A498 renal)	GI50 (CCRF-CEM leukemia)	GI50 (MALME-3M melanoma)
CC(=O)O[C@H]1CC[C@@]2(C)C(=C/C(=N\[N+](=O)[O-])[C@H]3C4CCC([C@H](C)CCCC(C)C)[C@@]4(C)CCC32)C1 (some centres undefined)	> 100 µM	> 100 µM	> 100 µM	> 100 µM	> 100 µM	> 100 µM	> 100 µM	> 100 µM	–	–	–	–	–	–	–	–	–	–	–	–
COC(=O)C1C(/C=C/c2ccoc2)ON2CCC[C@@H]12 (some centres undefined)	> 100 µM	> 100 µM	–	> 100 µM	> 100 µM	> 100 µM	> 100 µM	–	–	–	–	–	–	–	–	–	–	–	–	–
NC(=O)N/N=C(\CCC(=O)N(Cc1ccccc1)Cc1ccccc1)CC(=O)c1ccc(F)cc1	> 100 µM	> 100 µM	> 100 µM	> 100 µM	> 100 µM	> 100 µM	62.4 µM	–	> 100 µM	–	–	–	–	–	–	–	–	–	–	–
CC(=O)O/N=C/c1cc2c(cc1Br)OCO2	–	> 349 µM	> 349 µM	> 349 µM	> 349 µM	> 349 µM	–	–	> 349 µM	–	–	–	–	–	–	–	–	–	–	–
Cc1cc(Cl)ccc1NC(=O)C(=O)Cc1occc(=O)c1O	> 100 µM	> 100 µM	> 100 µM	> 100 µM	> 100 µM	> 100 µM	> 100 µM	> 100 µM	> 100 µM	–	–	–	–	–	–	–	–	–	–	–
Nc1ccc(C2=Nc3ccccc3SC(c3ccccc3O)C2)cc1 (centres undefined)	> 100 µM	> 100 µM	> 100 µM	> 100 µM	> 100 µM	> 100 µM	> 100 µM	74.1 µM	32.5 µM	–	–	–	–	–	–	–	–	–	–	–
Cc1ccc(Nc2nc(C)c(C(/C=C/c3ccc4c(c3)OCO4)=N/Nc3ccc([N+](=O)[O-])cc3[N+](=O)[O-])s2)c([N+](=O)[O-])c1	> 100 µM	> 100 µM	–	> 100 µM	> 100 µM	> 100 µM	> 100 µM	–	> 100 µM	–	–	–	–	–	–	–	–	–	–	–
O=C1/C(=C\c2ccccc2)c2ccccc2N1/N=C\c1ccccc1	> 100 µM	> 100 µM	> 100 µM	> 100 µM	> 100 µM	–	> 100 µM	> 100 µM	> 100 µM	–	–	–	–	–	–	–	–	–	–	–
CCOC(=O)C1Oc2ccc([N+](=O)[O-])cc2C1(C)O (centres undefined)	> 100 µM	> 100 µM	> 100 µM	> 100 µM	> 100 µM	> 100 µM	> 100 µM	> 100 µM	> 100 µM	–	–	–	–	–	–	–	–	–	–	–
O=CN1N=C(c2ccc(Nc3ccnc4cc(Cl)ccc34)cc2)CC1c1ccc(Cl)cc1 (centres undefined)	> 100 µM	> 100 µM	> 100 µM	> 100 µM	–	> 100 µM	> 100 µM	> 100 µM	–	0.359 µM	> 100 µM	1.3 µM	9.57 µM	0.809 µM	2.77 µM	1.88 µM	0.575 µM	> 100 µM	–	–
COc1ccc(/C(C#N)=C(/N)SCc2ccccc2Cl)cc1	> 10 µM	94.7 µM	–	34.2 µM	44.7 µM	30.9 µM	32.5 µM	42.3 µM	> 100 µM	–	–	–	–	–	–	–	–	–	–	–
O=C(NN1C(=O)CSC12CCC(c1ccccc1)CC2)c1[nH]c2ccc(F)cc2c1-c1ccccc1 (centres undefined)	31 µM	31.7 µM	32.3 µM	32 µM	30.9 µM	29.5 µM	38.3 µM	34.9 µM	41.1 µM	–	–	17 µM	17.3 µM	17.5 µM	17.4 µM	15.3 µM	20.9 µM	18.5 µM	19.4 µM	16.2 µM
O=c1[nH]c2c(c3ccccc13)CCc1ccccc1-2	> 100 µM	> 100 µM	> 100 µM	> 100 µM	> 100 µM	> 100 µM	> 100 µM	–	–	–	–	–	–	–	–	–	–	–	–	–
CC1(C)N=C(Oc2ccccc2)n2nccc2N1	> 100 µM	> 100 µM	> 100 µM	> 100 µM	> 100 µM	> 100 µM	> 100 µM	> 100 µM	> 100 µM	–	–	–	–	–	–	–	–	–	–	–
N#CC(C(=O)CCC(=O)Nc1ccc(Cl)c(Cl)c1)c1ccc(Cl)cc1 (centres undefined)	> 100 µM	> 100 µM	> 100 µM	> 100 µM	> 100 µM	> 100 µM	> 100 µM	> 100 µM	–	–	–	–	–	–	–	–	–	–	–	–
NS(=O)(=O)c1ccc(NC(=O)c2cccc3c(Nc4ccc(S(N)(=O)=O)cc4)c4ccccc4nc23)cc1	> 100 µM	> 100 µM	> 100 µM	> 100 µM	> 100 µM	> 100 µM	> 100 µM	> 100 µM	87.6 µM	–	–	–	–	–	–	–	–	–	–	–
COc1ccc(C=C2C(=O)NC(=O)NC2=O)cc1OCc1ccccc1	–	–	–	–	–	–	47.4 µg/mL	–	–	39.4 µg/mL	–	33 µg/mL	–	49 µg/mL	31.7 µg/mL	12 µg/mL	20.3 µg/mL	–	–	54.5 µg/mL

SMILES	TGI (UO-31 renal)	TGI (TK-10 renal)	TGI (SK-MEL-5 melanoma)	TGI (NCI-H23 lung)	TGI (MALME-3M melanoma)	TGI (RXF 393 renal)	TGI (SF-539 CNS)	TGI (A498 renal)	TGI (CCRF-CEM leukemia)	GI50 (NCI/ADR-RES ovarian)	TGI (NCI/ADR-RES ovarian)	GI50 (UO-31 renal)	GI50 (TK-10 renal)	GI50 (SK-MEL-5 melanoma)	GI50 (NCI-H23 lung)	GI50 (RXF 393 renal)	GI50 (SF-539 CNS)	GI50 (A498 renal)	GI50 (CCRF-CEM leukemia)	GI50 (MALME-3M melanoma)
O=S(=O)(N/N=C/c1ccc(Cl)cc1Cl)c1ccccc1	> 100 µM	> 100 µM	> 100 µM	> 100 µM	> 100 µM	> 100 µM	> 100 µM	> 100 µM	> 100 µM	–	–	–	–	–	–	–	–	–	–	–
NNC(=S)N/N=C(/C(=O)Nc1ccc([N+](=O)[O-])cc1)c1nc2ccc([N+](=O)[O-])cc2[nH]c1=O	> 100 µM	> 100 µM	> 100 µM	> 100 µM	> 100 µM	–	> 100 µM	> 100 µM	> 100 µM	–	–	–	–	–	–	–	–	–	–	–
O=C1NN=CN2C(=O)CCC12 (centres undefined)	> 100 µM	> 100 µM	> 100 µM	> 100 µM	–	> 100 µM	> 100 µM	> 100 µM	> 100 µM	–	–	–	–	–	–	–	–	–	–	–
O=C(O)c1cc(=O)c2cc(C(=O)c3cccs3)c(Cl)c(Cl)c2o1	> 100 µM	> 100 µM	> 100 µM	> 100 µM	> 100 µM	–	–	> 100 µM	> 100 µM	–	–	–	–	–	–	–	–	–	–	–
COc1ccc(/C=N\O[Si](C)(C)C(C)(C)C)cc1O[Si](C)(C)C(C)(C)C	27.9 µM	36.3 µM	33.9 µM	37.1 µM	37.4 µM	28.4 µM	37.9 µM	33.2 µM	48 µM	–	–	–	–	–	–	–	–	–	–	–
O=C(O)C1CC2CC(=O)C1C2 (centres undefined)	> 100 µM	> 100 µM	> 100 µM	> 100 µM	> 100 µM	> 100 µM	> 100 µM	> 100 µM	> 100 µM	–	–	–	–	–	–	–	–	–	–	–
Cc1ccccc1NC(=O)c1cc2ccccc2cc1O	> 100 µM	> 100 µM	5.58 µM	6.6 µM	7.29 µM	7.23 µM	24.1 µM	–	–	2.85 µM	8.79 µM	3.54 µM	4.2 µM	2.38 µM	2.36 µM	2.78 µM	3.55 µM	–	–	1.98 µM
c1ccc(/C(=N\Nc2ccc3ccccc3n2)c2ccccn2)cc1	4.89 µM	5.31 µM	2.92 µM	22.8 µM	5.76 µM	–	4.57 µM	80.4 µM	1.47 µM	0.387 µM	14.2 µM	0.361 µM	0.372 µM	0.487 µM	0.983 µM	–	0.682 µM	2.92 µM	0.298 µM	0.546 µM
O=C(CC(=O)c1ccccc1)C(=O)NC12CC3CC(CC(C3)C1)C2	> 100 µM	> 100 µM	> 100 µM	> 100 µM	> 100 µM	> 47.3 µM	> 100 µM	> 100 µM	> 80.4 µM	–	–	–	–	–	–	–	–	–	–	–
O=C(CC(=O)C1CCOC1=O)C(=O)Nc1ccc(Cl)cc1 (centres undefined)	> 100 µM	> 100 µM	> 100 µM	> 100 µM	> 100 µM	> 100 µM	> 100 µM	> 100 µM	> 100 µM	–	–	–	–	–	–	–	–	–	–	–
O=c1[nH]cnc2c1ncn2CCCCO	> 100 µM	> 100 µM	> 100 µM	> 100 µM	> 100 µM	> 100 µM	> 100 µM	> 100 µM	> 100 µM	–	–	–	–	–	–	–	–	–	–	–
Cc1cccc(N=C2NC(=O)C(CC(=O)Nc3ccccc3Cl)S2)c1 (centres undefined)	> 100 µM	> 100 µM	> 100 µM	> 100 µM	> 100 µM	> 100 µM	> 100 µM	> 100 µM	> 100 µM	–	–	–	–	–	–	–	–	–	–	–
OC1c2ccccc2C2C(O)c3ccccc3C12 (centres undefined)	> 100 µM	> 100 µM	> 100 µM	> 100 µM	> 100 µM	> 100 µM	> 100 µM	–	> 100 µM	–	–	–	–	–	–	–	–	–	–	–
COc1cc(/C=C\c2ccc(Cl)cc2)cc(OC)c1OC	> 43.6 µM	> 100 µM	12.8 µM	1.12 µM	57.3 µM	> 100 µM	0.564 µM	1.25 µM	3.96 µM	–	–	–	–	–	–	–	–	–	–	–
O=C1NN=C(c2ccc([N+](=O)[O-])cc2)C1n1nc(-c2ccccc2)c2ccccc2c1=O (centres undefined)	> 100 µM	> 100 µM	> 100 µM	> 100 µM	> 100 µM	> 100 µM	> 100 µM	> 100 µM	> 100 µM	–	–	–	–	–	–	–	–	–	–	–
CCCCCCCCCCCCCCCCCc1nnc(N)o1	> 100 µM	> 100 µM	–	> 100 µM	> 100 µM	–	> 100 µM	–	–	–	–	–	–	–	–	–	–	–	–	–
